Like-named read-outs stand apart in the source and are kept apart here.
Tests used:
[1] = tested on: PC3 cells; test: PC3 growth inhibition (Cell-titer glo, 72 hours); type: cell-based; settings: Homo sapiens, PC-3, PC3 cells, 72 hours, Cell-titer glo, read-out: Percent Inhibition (PC3 growth inhibition); for inhibition at 1.667 µM: compound concentration 1.667 μM; for inhibition at 1 µM: compound concentration 1 μM
Description: The ability of a compound of the invention to inhibit the growth of cells can be measured using a variety of methods known in the art. For example, the ability of a compound of the invention to inhibit the growth of PC3 cells can be measured. PC3 cells can be plated and incubated overnight under CO2. For each measurement, a compound of the invention (or vehicle e.g., DMSO) can be diluted with AIM serum free medium and added to the cell plate. The cell plate can then be incubated for 72 h under CO2. Cell-titer glo solution can be added and the plates can be incubated protected from light and the amount of luminescences can be measured. Concentration response curves can be generated by calculating the luminescence increase in test compound treated samples relative to DMSO-treated controls. Percentage remaining viability values at a single concentration can be measured. Growth inhibition (GI50) or cell viability (LD50) values can be determined from those curves.
Compounds of the invention were assayed to measure PC3 growth inhibition at a concentration of 1 μM or 1.667 μM (Table 3). To measure PC3 growth inhibition, PC3 cells that were maintained in PRMI1640 growth medium (Life Technologies; Cat. No. 11875) at 37° C. under 5% CO2 are trypsinized and diluted at a density of 8×10^4 cells/ml, 25 ul per well of cells and plated in 384-well black tissue culture plate. The cells are incubated overnight at 37° C. under 5% CO2. For each measurement, a test compounds or vehicle control (DMSO) are diluted with AIM serum free medium and added to the cell plate. Incubate for 72 hours at 37° C. under 5% CO2. 25 μl Cell-titer glo solution (Promega; Cat. No. G8462) is added and the cell plates are incubated for 10 minutes protected from light. The luminescence is measured. Concentration response curves are generated by calculating the luminescence increase in test compound-treated samples relative to DMSO-treated controls. Percentage remaining viability values at a single concentration, growth inhibition (GI50) or cell viability (LD50) values are determined from those curves. One skilled in the art will appreciate that these values are subject to experimental variation.

[2] = molecular target: hNAMPT protein (Homo sapiens (Human), UniProt P43490); test: NAMPT enzyme assay (TR-FRET/HTRF, BodiPY ligand, anti 6His-Tb); type: binding; settings: for inhibition at 1 µM: read-out: Percent Inhibition; for IC50: read-out: IC50
hNAMPT protein, sequence (P43490 whole entry): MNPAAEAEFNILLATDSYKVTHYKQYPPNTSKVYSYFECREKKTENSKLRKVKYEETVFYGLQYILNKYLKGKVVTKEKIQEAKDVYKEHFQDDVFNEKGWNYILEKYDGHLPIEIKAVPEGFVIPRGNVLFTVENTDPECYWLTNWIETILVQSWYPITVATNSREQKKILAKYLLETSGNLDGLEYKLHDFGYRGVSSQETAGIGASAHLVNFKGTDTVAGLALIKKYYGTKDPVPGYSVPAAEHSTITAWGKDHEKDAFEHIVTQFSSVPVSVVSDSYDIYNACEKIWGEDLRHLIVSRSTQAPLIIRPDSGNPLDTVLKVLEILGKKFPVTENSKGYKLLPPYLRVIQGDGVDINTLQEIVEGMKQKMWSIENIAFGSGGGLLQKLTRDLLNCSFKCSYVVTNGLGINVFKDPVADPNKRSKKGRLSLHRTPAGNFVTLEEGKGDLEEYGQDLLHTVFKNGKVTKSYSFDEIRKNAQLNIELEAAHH
From the text: As discussed above, the invention provides compounds that are useful as inhibitors of the enzyme NAMPT. The NAMPT inhibition of a compound of the invention can be measured using a variety of methods known in the art. For example, the ability of a compound of the invention to inhibit NAMPT enzyme activity can be measured using a homogeneous time resolved fluorescence (HTRF) assay using hNAMPT protein and anti 6His-Tb in buffer treated with a compound of the invention (or control e.g., DMSO) and BodiPY ligand. The TR-FRET signal can be measured using a high throughput microplate reader (e.g., Pherastar). Excitation can be carried out at 320 nm. The percent inhibition value at a single concentration of compound of the invention can be calculated relative to a control treated sample. A concentration response curve can be generated for each compound of the invention and the curve fitted to generate an IC50 value. […] Cat. No. […] To this solution is added test compounds or vehicle control (DMSO) and BodiPY ligand (structure below). The plate is shaken for 1-2 min, sealed and incubated for 1 hour at rt in the dark. The TR-FRET signal is measured using BMG Pherastar (Lanthascreen protocol on BMG Pherastar). Excitation was carried out at 320 nm, and the ratio of emission of BodiPY (520 nm) to terbium (486 nm) was determined. Concentration response curves are generated by calculating the excitation increase in test compound-treated samples relative to DMSO-treated controls. For the assay method described above, test compound percent inhibition values at a single concentration are calculated relative to control (DMSO) treated samples. Compound concentration response curves are fitted to generate IC50 values from those curves. One skilled in the art will appreciate that these values generated either as percentage inhibition at a single concentration or IC50 values are subject to experimental variation.

[3] = NAMPT inhibition at compound concentration 1 μM
[4] = NAMPT inhibition, IC50 range class

SMILES | inhibition at 1.667 µM [1] | inhibition at 1 µM [2, 3] | IC50 [2, 4] | IC50 ([2]; NAMPT IC50 range class) | inhibition at 1 µM ([2]; compound concentration 1 μM) | inhibition at 1 µM [1]
C#CCOc1nc2ccc(C(=O)NCCCc3ncc[nH]3)cc2nc1-c1ccc(F)cc1 [Compound I-462, 3-(4-fluorophenyl)-N-[3-(1H-imidazol-2-yl)propyl]-2-(prop-2-yn-1-yloxy)quinoxaline-6-carboxamide] | 2% | 95% | < 100 nM | – | – | –
Cc1nccn1-c1nc2ccc(C(=O)NCCCc3ncc[nH]3)cc2nc1-c1ccc(F)cc1 [Compound I-413, 3-(4-fluorophenyl)-N-[3-(1H-imidazol-2-yl)propyl]-2-(2-methyl-1H-imidazol-1-yl)quinoxaline-6-carboxamide] | 3% | 80% | 100 to 500 nM | – | – | –
COc1cccc(-c2nc3cc(C(=O)NCCc4cccnc4)ccc3nc2N2CCOCC2)c1 [Compound I-189, 3-(3-methoxyphenyl)-2-(morpholin-4-yl)-N-[2-(pyridin-3-yl)ethyl]quinoxaline-6-carboxamide] | 2% | – | – | < 100 nM | 91% | –
C[C@@H]1CN(c2nc3ccc(C(=O)NCCCn4ccnc4)cc3nc2-c2ccccc2)C[C@H](C)O1 [Compound I-115, cis-2-[(2R,6S)-2,6-dimethylmorpholin-4-yl]-N-[3-(1H-imidazol-1-yl)propyl]-3-phenylquinoxaline-6-carboxamide] | – | – | – | < 100 nM | 100% | -8%
O=C(NCCCc1ncc[nH]1)c1ccc2nc(OCc3nccs3)c(-c3ccc(F)cc3)nc2c1 [Compound I-469, 3-(4-fluorophenyl)-N-[3-(1H-imidazol-2-yl)propyl]-2-(1,3-thiazol-2-ylmethoxy)quinoxaline-6-carboxamide] | 2% | 98% | < 100 nM | – | – | –
N#CC1CCN(c2nc3cc(C(=O)NCCCn4ccnc4)ccc3nc2-c2ccccc2)C1 (stereo not drawn) [Compound I-17, 3-(3-cyanopyrrolidin-1-yl)-N-[3-(1H-imidazol-1-yl)propyl]-2-phenylquinoxaline-6-carboxamide] | – | – | – | 2000 to 10000 nM | 19% | 4%
Cc1nc(C)c(-c2nc3cc(C(=O)NCCCn4ccnc4)ccc3nc2-c2ccccc2)s1 [Compound I-9, 3-(2,4-dimethyl-1,3-thiazol-5-yl)-N-[3-(1H-imidazol-1-yl)propyl]-2-phenylquinoxaline-6-carboxamide] | – | – | – | 1000 to 2000 nM | 36% | 1%
O=C(NCCCn1ccnc1)c1ccc2nc(-c3ccc4cc[nH]c4c3)c(-c3ccccc3)nc2c1 [Compound I-208, N-[3-(1H-imidazol-1-yl)propyl]-2-(1H-indol-6-yl)-3-phenylquinoxaline-6-carboxamide] | – | – | – | 500 to 1000 nM | 55% | -6%
O=C(NCCCc1ncc[nH]1)c1ccc2nc(OCc3ccccc3)c(-c3ccc(F)cc3)nc2c1 [Compound I-439, 2-(benzyloxy)-3-(4-fluorophenyl)-N-[3-(1H-imidazol-2-yl)propyl]quinoxaline-6-carboxamide] | 3% | 93% | < 100 nM | – | – | –
O=C(NCCCc1ccncc1)c1ccc2nc(-c3ccc(F)cc3)c(-c3ccc(F)cc3)nc2c1 [Compound I-229, 2,3-bis(4-fluorophenyl)-N-[3-(pyridin-4-yl)propyl]quinoxaline-6-carboxamide] | – | – | – | 100 to 500 nM | 73% | 95%
O=C(NCCCc1ncc[nH]1)c1ccc2nc(-c3ccc(Cl)s3)c(-c3ccc(F)cc3)nc2c1 [Compound I-483, 2-(5-chloro-2-thienyl)-3-(4-fluorophenyl)-N-[3-(1H-imidazol-2-yl)propyl]quinoxaline-6-carboxamide] | 2% | 77% | 100 to 500 nM | – | – | –
NS(=O)(=O)c1ccc(-c2nc3ccc(C(=O)NCCCn4ccnc4)cc3nc2-c2ccccc2)cc1 [Compound I-145, N-[3-(1H-imidazol-1-yl)propyl]-3-phenyl-2-(4-sulfamoylphenyl)quinoxaline-6-carboxamide] | – | – | – | 100 to 500 nM | 76% | -7%
CN1CCN(Cc2nc3ccc(C(=O)NCCCn4ccnc4)cc3nc2-c2ccccc2)CC1 [Compound I-259, N-[3-(1H-imidazol-1-yl)propyl]-2-[(4-methylpiperazin-1-yl)methyl]-3-phenylquinoxaline-6-carboxamide] | – | – | – | 1000 to 2000 nM | 44% | -7%
COc1nc2ccc(C(=O)NCCCc3ncc[nH]3)cc2nc1-c1ccc(Cl)cc1 [Compound I-109, 3-(4-chlorophenyl)-N-[3-(1H-imidazol-2-yl)propyl]-2-methoxyquinoxaline-6-carboxamide] | 36% | – | – | < 100 nM | 97% | –
Cn1cncc1CCNC(=O)c1ccc2nc(N3CCCCC3)c(-c3ccc(F)cc3)nc2c1 [Compound I-4, 3-(4-fluorophenyl)-N-[2-(1-methyl-1H-imidazol-5-yl)ethyl]-2-(piperidin-1-yl)quinoxaline-6-carboxamide] | 2% | – | – | < 100 nM | 93% | –
Cc1cc(-c2nc3cc(C(=O)NCCCc4ncc[nH]4)ccc3nc2-c2ccc(F)cc2)cnc1Cl [Compound I-309, 3-(6-chloro-5-methylpyridin-3-yl)-2-(4-fluorophenyl)-N-[3-(1H-imidazol-2-yl)propyl]quinoxaline-6-carboxamide] | 3% | – | – | 100 to 500 nM | 86% | –
O=C(NCc1ccc2nccn2c1)c1ccc2nc(N3CCOCC3)c(-c3ccc(F)cc3)nc2c1 [Compound I-147, 3-(4-fluorophenyl)-N-(imidazo[1,2-a]pyridin-6-ylmethyl)-2-(morpholin-4-yl)quinoxaline-6-carboxamide] | 2% | – | – | < 100 nM | 95% | –
O=C(NCCCn1ccnc1)c1ccc2nc(N3CCN4C(=O)CCC4C3)c(-c3ccccc3)nc2c1 (stereo not drawn) [Compound I-250, N-[3-(1H-imidazol-1-yl)propyl]-2-(6-oxohexahydropyrrolo[1,2-a]pyrazin-2(1H)-yl)-3-phenylquinoxaline-6-carboxamide] | – | – | – | 100 to 500 nM | 86% | -6%
O=C(NCCCc1ncc[nH]1)c1ccc2nc(-c3ccc(F)cc3)c(-c3ccc(F)s3)nc2c1 [Compound I-368, 2-(4-fluorophenyl)-3-(5-fluoro-2-thienyl)-N-[3-(1H-imidazol-2-yl)propyl]quinoxaline-6-carboxamide] | 1% | – | – | < 100 nM | > 99% | –
O=C(c1ccc2nc(-c3ccc(F)cc3)c(-c3ccc(F)cc3)nc2c1)N1CCc2[nH]ncc2C1 [Compound I-225, [2,3-bis(4-fluorophenyl)quinoxalin-6-yl](1,4,6,7-tetrahydro-5H-pyrazolo[4,3-c]pyridin-5-yl)methanone] | – | – | – | 2000 to 10000 nM | 14% | 91%
CC(=O)Nc1cccc(-c2nc3ccc(C(=O)NCCCn4ccnc4)cc3nc2-c2ccccc2)c1 [Compound I-2, 2-(3-acetamidophenyl)-N-[3-(1H-imidazol-1-yl)propyl]-3-phenylquinoxaline-6-carboxamide] | – | – | – | 100 to 500 nM | 77% | -7%

From US10144742B2 (Millennium Pharmaceuticals, Inc., priority 2014, dated 2018)
